Reference: patent publication US20080187935A1, “Homo and Heterodimer Proteins of the Abcg Family, Methods For Detection and Screening Modulators Thereof” (priority 2004, published 2008)

Legend:
human ABCG1 = molecular target: T1, human ABCG1 (Homo sapiens, UniProt P45844); test: vanadate-sensitive ATPase activity of ABCG1 in isolated Sf9 membranes; type: biochemical; settings: for effect on ABCG1 ATPase activity (in words): Sf9 membranes, 3.3 mM MgATP
T1 construct: made in house; host or cells: Sf9 insect cells (baculovirus), isolated membranes
Protocol: (§1) Recombinant baculoviruses carrying transporter cDNA were generated with BaculoGold Transfection Kit (Pharmingen), in accordance with the manufacturer's protocol. The titer of virus supernatants were determined in order to express the same amount of each proteins, Sf9 (Spodoptera frugiperda ovarian) cells (Invitrogen) were infected and cultured according to the procedures described previously (19). Briefly, about 3×10^7 cells were infected with 3 ml of virus supernatant in case of homodimer expression and 1.5-1.5 ml of virus supernatants in case of heterodimer expression. The virus-infected Sf9 cells were cultured in T150 culture flasks with 30 ml of medium for the times indicated. The cells were harvested by scraping them into Tris-mannitol buffer (50 mM Tris, pH 7.0, with HCl, containing 300 mM mannitol and 0.5 mM phenylmethylsulfonyl fluoride).
For membrane preparation the cells were lysed and homogenized using a glass-Teflon tissue homogenizer in TMEP (50 mM Tris, pH 7.0, with HCl, containing 50 mM mannitol, 2 mM EGTA-Tris, 10 µg/ml leupeptin, 8 µg/ml aprotinin, 0.5 mM phenylmethylsulfonyl fluoride, and 2 mM dithiothreitol), and the undisrupted cells and nuclear debris were removed by centrifugation at 500×g for 10 min. The supernatant fluid was then centrifuged for 60 min at 100,000×g and the pellet containing the membranes resuspended in TMEP at a protein concentration of 2-3 mg/ml. All procedures were carried out at 4° C., and the membranes were stored at −70° C.
(§2) The ATPase activity of the isolated Sf9 cell membranes was estimated by measuring inorganic phosphate liberation. Membrane suspensions (about 20 μg of membrane protein, as determined by a modified Lowry method) were incubated at 37° C. for 20-min in 0.15 ml of a medium containing 40 mM MOPS-Tris (pH 7.0), 0.5 mM EGTA-Tris (pH 7.0), 2 mM dithiothreitol, 50 mM KCl, 1 mM ouabain and 5 mM sodium azide, and the ATPase reaction was started by the addition of 3.3 mM MgATP. The indicated drugs (obtained from Sigma) were added in dimethyl sulfoxide. The final concentration of dimethyl sulfoxide in the assay medium was 1%. […] The reactions were stopped by the addition of 0.1 ml of 5% SDS solution and the amount of inorganic phosphate determined immediately. Inorganic phosphate was measured by colorimetric reaction (19). The points plotted in the figures indicate the means of triplicate determinations.

ABCG2R482G = molecular target: T2, ABCG2R482G (Homo sapiens, UniProt Q9UNQ0, R482G); settings: Özvegy C et al., 2001, cited from earlier work
T2 construct: host or cells: Sf9 membranes
T2 sequence (Q9UNQ0 1-655 R482G): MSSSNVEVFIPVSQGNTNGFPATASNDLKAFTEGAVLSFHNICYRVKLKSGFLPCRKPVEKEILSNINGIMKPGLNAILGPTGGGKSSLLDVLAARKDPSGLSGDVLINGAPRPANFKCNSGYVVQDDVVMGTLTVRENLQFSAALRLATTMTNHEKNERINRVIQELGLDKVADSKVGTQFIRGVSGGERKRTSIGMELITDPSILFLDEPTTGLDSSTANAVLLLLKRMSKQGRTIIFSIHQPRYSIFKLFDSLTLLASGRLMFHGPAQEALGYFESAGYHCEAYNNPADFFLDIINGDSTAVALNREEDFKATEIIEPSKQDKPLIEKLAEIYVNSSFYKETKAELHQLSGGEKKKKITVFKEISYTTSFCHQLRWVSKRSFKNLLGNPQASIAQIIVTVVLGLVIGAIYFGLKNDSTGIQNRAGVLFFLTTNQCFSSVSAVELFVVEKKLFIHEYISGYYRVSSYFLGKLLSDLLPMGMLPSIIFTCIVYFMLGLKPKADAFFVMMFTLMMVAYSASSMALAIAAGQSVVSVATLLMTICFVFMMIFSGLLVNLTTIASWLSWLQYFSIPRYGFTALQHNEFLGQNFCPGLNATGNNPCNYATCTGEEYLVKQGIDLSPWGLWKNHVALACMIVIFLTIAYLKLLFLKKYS

ABCG1K124M = molecular target: T3, ABCG1K124M (Homo sapiens, UniProt P45844, K124M); test: ATPase activity of catalytic site mutant ABCG1K124M in Sf9 membranes; type: biochemical; settings: data not shown
T3 construct: made in house; host or cells: Sf9 insect cells (baculovirus), isolated membranes
Protocol: as §1, with “The cells were harvested by scraping them into Tris-mannitol buffer (50 mM Tris, pH 7.0, with HCl, containing 300 mM mannitol and 0.5 mM phenylmethylsulfonyl fluoride).” left out
as §2, with “MgATP.” for “MgATP. The indicated drugs (obtained from Sigma) were added in dimethyl sulfoxide. The final concentration of dimethyl sulfoxide in the assay medium was 1%.”, “The points plotted in the figures indicate the means of triplicate determinations.” left out

human ABCG4 = molecular target: T4, human ABCG4 (Homo sapiens, UniProt Q9H172); test: vanadate-sensitive ATPase activity of ABCG4 in isolated Sf9 membranes; type: biochemical
T4 construct: made in house; host or cells: Sf9 insect cells (baculovirus), isolated membranes; cDNA from I.M.A.G.E. clone 1537140
Protocol: Recombinant baculoviruses carrying transporter cDNA were generated with BaculoGold Transfection Kit (Pharmingen), in accordance with the manufacturer's protocol. The titer of virus supernatants were determined in order to express the same amount of each proteins, Sf9 (Spodoptera frugiperda ovarian) cells (Invitrogen) were infected and cultured according to the procedures described previously (19). Briefly, about 3×10^7 cells were infected with 3 ml of virus supernatant in case of homodimer expression and 1.5-1.5 ml of virus supernatants in case of heterodimer expression. The virus-infected Sf9 cells were cultured in T150 culture flasks with 30 ml of medium for the times indicated. […] The supernatant fluid was then centrifuged for 60 min at 100,000×g and the pellet containing the membranes resuspended in TMEP at a protein concentration of 2-3 mg/ml. All procedures were carried out at 4° C., and the membranes were stored at −70° C. The ATPase activity of the isolated Sf9 cell membranes was estimated by measuring inorganic phosphate liberation. […] The indicated drugs (obtained from Sigma) were added in dimethyl sulfoxide. The final concentration of dimethyl sulfoxide in the assay medium was 1%. […] The reactions were stopped by the addition of 0.1 ml of 5% SDS solution and the amount of inorganic phosphate determined immediately. Inorganic phosphate was measured by colorimetric reaction (19). […]

ABCG1/ABCG4 = molecular target: T5, ABCG1/ABCG4 (Homo sapiens, UniProt P45844+Q9H172); test: ATPase activity of co-expressed ABCG1/ABCG4 in Sf9 membranes; type: biochemical; settings: various concentrations, data not shown
T5 construct: made in house; host or cells: Sf9 insect cells co-infected with both baculoviruses, isolated membranes
Protocol: as §1, with “The cells were harvested by scraping them into Tris-mannitol buffer (50 mM Tris, pH 7.0, with HCl, containing 300 mM mannitol and 0.5 mM phenylmethylsulfonyl fluoride).” left out
as §2, with “MgATP.” for “MgATP. The indicated drugs (obtained from Sigma) were added in dimethyl sulfoxide. The final concentration of dimethyl sulfoxide in the assay medium was 1%.”, “The points plotted in the figures indicate the means of triplicate determinations.” left out

T4 sequence (Q9H172 whole entry): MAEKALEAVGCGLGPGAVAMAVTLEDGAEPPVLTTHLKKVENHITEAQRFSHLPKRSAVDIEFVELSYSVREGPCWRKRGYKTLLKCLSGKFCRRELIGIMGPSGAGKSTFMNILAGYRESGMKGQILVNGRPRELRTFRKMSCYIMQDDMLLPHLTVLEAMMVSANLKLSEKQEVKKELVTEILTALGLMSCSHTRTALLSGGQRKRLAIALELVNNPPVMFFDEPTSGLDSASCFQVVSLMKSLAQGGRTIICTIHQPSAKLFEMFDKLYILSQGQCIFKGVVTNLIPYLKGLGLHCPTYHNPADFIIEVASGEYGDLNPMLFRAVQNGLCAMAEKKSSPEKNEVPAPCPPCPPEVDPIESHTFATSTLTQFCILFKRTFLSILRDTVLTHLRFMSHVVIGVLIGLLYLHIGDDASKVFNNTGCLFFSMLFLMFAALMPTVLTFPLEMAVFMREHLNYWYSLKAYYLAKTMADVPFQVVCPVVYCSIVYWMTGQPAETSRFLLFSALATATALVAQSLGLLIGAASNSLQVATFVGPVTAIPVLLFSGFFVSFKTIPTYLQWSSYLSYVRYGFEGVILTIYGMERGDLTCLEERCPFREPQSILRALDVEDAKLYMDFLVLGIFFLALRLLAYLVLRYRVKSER

rhodamine123
increase of ATPase activity of ABCG1 (human ABCG1; 20 μM rhodamine123): increased almost two fold
rhodamine123 stimulated ATPase activity (human ABCG1; ABCG1 co-expressed with β-Gal, 100 μM rhodamine123, units = nanomoles Pi/mg membrane protein/min, basal 19.2±1.24, SEM, n=3): 33.6±0.65 units
effect on ABCG1 ATPase activity (in words) (human ABCG1): substantially stimulate
EC50 (human ABCG1; stimulation of ABCG1 ATPase activity, read-out: Kact): ~10 µM
stimulation of ABCG2R482G mutant ATPase activity (ABCG2R482G): about 1.4 fold
effect on ABCG1K124M ATPase activity (in words) (ABCG1K124M): negligible
effect on ABCG4 ATPase activity (in words) (human ABCG4): no effect

N[C@@H](Cc1cc(I)c(Oc2cc(I)c(O)c(I)c2)c(I)c1)C(=O)O [L-thyroxine]
effect on ABCG1 ATPase activity (in words) (human ABCG1): inhibited ABCG1

Nc1c(O)cccc1C(=O)C[C@H](N)C(=O)O [3-OH kynurenine, 3-OH-kynurenine]
effect on ABCG1 ATPase activity (in words) (human ABCG1): could not detect a change in activity
effect on ATPase activity of co-expressed ABCG1/ABCG4 (in words) (ABCG1/ABCG4): could not detect a change in activity
effect on ABCG4 ATPase activity (in words) (human ABCG4): could not detect a change in activity

COc1ccc2c3c([nH]c2c1)[C@H](CC(C)C)N1C(=O)[C@H](CCC(=O)OC(C)(C)C)NC(=O)[C@@H]1C3 [Ko143]
effect on ABCG1 ATPase activity (in words) (human ABCG1): no effect

Nc1ncnc2c1ncn2[C@@H]1O[C@H](COP(=O)(O)OP(=O)(O)OP(=O)(O)O)[C@@H](O)[C@H]1O [ATP]
Km (human ABCG1; with or without 100 μM rhodamine123, read-out: Km for ATP): ~500 µM
Km (ABCG2R482G; read-out: Km for ATP): ~600 µM

NC(=NCc1ccccc1)NC(=O)c1nc(Cl)c(N)nc1N [Benzamil, benzamil]
Ki (human ABCG1; inhibition of ABCG1 ATPase activity): ~0.5 µM

cyclosporin A
effect on ABCG1 ATPase activity (in words) (human ABCG1): inhibited ABCG1 ATPase activity at low concentrations
